Reference: patent US7928107B2, “Quinazolines useful as modulators of ion channels” (Vertex Pharmaceuticals Incorporated, priority 2004, dated 2011)

These molecules were tested against NaV 1.8 channel (Homo sapiens, UniProt Q9Y5Y9) (assay: Activity against NaV 1.8 channel (optical membrane potential assay)).
Assay type: cell-based
How it was run: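 Cells expressing the NaV of interest loaded with CC2-DMPE (30 min, room temperature) then DiSBAC2(3) with ABSCl and veratridine; compound incubated 20–30 min. Depolarization triggered by sodium add-back and read on VIPR as 460/580 nm FRET ratio (Rf/Ri), normalized to tetracaine and untreated controls.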

NaV 1.8 channel, sequence (Q9Y5Y9 whole entry): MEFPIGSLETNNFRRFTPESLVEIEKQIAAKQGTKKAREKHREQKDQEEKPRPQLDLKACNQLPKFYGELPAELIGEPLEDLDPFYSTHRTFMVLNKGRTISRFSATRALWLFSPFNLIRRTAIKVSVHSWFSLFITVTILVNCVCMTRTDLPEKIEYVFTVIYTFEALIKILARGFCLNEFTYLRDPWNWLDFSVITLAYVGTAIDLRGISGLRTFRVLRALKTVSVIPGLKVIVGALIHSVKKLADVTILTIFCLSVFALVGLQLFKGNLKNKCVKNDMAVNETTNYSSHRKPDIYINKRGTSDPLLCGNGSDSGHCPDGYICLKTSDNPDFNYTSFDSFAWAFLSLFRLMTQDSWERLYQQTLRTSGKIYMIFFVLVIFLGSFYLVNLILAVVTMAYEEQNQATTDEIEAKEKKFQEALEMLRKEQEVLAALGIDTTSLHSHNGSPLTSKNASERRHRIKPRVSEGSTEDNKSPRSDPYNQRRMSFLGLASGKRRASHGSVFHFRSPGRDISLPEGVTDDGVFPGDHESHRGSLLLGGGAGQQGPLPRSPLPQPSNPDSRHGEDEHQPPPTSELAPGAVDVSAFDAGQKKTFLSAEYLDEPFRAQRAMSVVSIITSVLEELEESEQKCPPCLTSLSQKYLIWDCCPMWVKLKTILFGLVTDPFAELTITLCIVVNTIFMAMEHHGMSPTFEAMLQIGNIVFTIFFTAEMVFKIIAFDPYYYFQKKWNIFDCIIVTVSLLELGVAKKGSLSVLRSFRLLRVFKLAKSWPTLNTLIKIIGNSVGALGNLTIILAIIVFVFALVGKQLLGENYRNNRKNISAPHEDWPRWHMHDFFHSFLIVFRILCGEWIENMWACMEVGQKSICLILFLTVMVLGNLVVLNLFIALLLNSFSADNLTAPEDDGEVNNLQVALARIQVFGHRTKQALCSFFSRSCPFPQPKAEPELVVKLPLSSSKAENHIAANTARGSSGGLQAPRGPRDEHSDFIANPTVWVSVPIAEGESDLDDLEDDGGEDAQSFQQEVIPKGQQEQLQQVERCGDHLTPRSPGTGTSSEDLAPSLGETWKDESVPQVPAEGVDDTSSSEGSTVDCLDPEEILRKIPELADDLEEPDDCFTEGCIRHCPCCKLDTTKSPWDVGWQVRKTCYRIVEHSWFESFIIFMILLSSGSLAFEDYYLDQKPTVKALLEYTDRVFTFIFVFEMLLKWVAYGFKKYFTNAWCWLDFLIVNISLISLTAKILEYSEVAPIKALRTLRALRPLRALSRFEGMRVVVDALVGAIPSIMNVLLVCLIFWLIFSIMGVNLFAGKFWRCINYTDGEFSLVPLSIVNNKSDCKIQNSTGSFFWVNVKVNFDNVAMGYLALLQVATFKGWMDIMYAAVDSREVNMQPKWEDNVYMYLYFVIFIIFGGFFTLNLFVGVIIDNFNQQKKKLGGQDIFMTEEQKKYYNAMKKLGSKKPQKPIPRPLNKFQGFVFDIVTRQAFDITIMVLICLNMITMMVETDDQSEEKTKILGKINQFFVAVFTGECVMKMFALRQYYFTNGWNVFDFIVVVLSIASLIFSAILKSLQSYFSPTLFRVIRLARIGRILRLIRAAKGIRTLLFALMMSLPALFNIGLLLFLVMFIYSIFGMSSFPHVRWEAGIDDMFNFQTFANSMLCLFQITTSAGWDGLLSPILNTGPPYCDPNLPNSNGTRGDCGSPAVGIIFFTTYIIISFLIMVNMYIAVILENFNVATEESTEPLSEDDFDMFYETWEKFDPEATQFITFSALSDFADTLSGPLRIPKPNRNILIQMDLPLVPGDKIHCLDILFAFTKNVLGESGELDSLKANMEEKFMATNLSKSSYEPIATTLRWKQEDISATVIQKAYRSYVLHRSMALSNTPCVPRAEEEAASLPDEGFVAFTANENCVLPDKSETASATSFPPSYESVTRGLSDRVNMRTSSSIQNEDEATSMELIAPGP

| IC50 [µM] | Compound |
| --- | --- |
| > 10 | Cc1ccc2c(N3CCC[C@@H](CNC(=O)C4CC4)C3)nc(-c3ccccc3O)nc2c1 [Example 226, N—(((S)-1-(2-(2-Hydroxyphenyl)-7-methylquinazolin-4-yl)piperidin-3-yl)methyl)cyclopropanecarboxamide] |
| > 10 | Cc1ccc2c(N3CCC(NC(=O)OCc4cccnc4)CC3)nc(-c3ccccc3O)nc2c1 [Example 227, (Pyridin-3-yl)methyl 1-(2-(2-hydroxyphenyl)-7-methylquinazolin-4-yl)piperidin-4-ylcarbamate] |
| > 10 | Cc1ccc2c(N3CCC(NC(=O)OCc4ccncc4)CC3)nc(-c3ccccc3O)nc2c1 [Example 228, (Pyridin-4-yl)methyl 1-(2-(2-hydroxyphenyl)-7-methylquinazolin-4-yl)piperidin-4-ylcarbamate] |
| > 10 | Cc1ccc2c(N3CCC(NC(=O)OCc4cccc5c4OCO5)CC3)nc(-c3ccccc3O)nc2c1 [Example 229, (Benzo[d][1,3]dioxol-7-yl)methyl 1-(2-(2-hydroxyphenyl)-7-methylquinazolin-4-yl)piperidin-4-ylcarbamate] |
| 2 to 10 | Cc1ccc2c(N3CCCC(C(=O)NCC4CCCO4)C3)nc(-c3ccccc3O)nc2c1 (stereo not shown) [Example 230, N-((Tetrahydrofuran-2-yl)methyl)-1-(2-(2-hydroxyphenyl)-7-methylquinazolin-4-yl)piperidine-3-carboxamide] |
| 2 to 10 | Cc1ccc2c(N3CCC[C@@H](CNC(=O)O[C@H]4CCOC4)C3)nc(-c3c(O)cccc3F)nc2c1 [Example 231, (S)-Tetrahydrofuran-3-yl ((S)-1-(2-(2-fluoro-6-hydroxyphenyl)-7-methylquinazolin-4-yl)piperidin-3-yl)methylcarbamate] |
| 2 to 10 | Cc1ccc2c(N3CCC(NC(=O)[C@H](O)CC(C)(C)C)CC3)nc(-c3ccccc3O)nc2c1 [Example 232, (2R)-2-Hydroxy-N-(1-(2-(2-hydroxyphenyl)-7-methylquinazolin-4-yl)piperidin-4-yl)-4,4-dimethylpentanamide] |
| > 10 | Cc1ccc2c(N3CCC(NC(=O)C(C)(C)O)CC3)nc(-c3ccccc3O)nc2c1 [Example 233, 2-Hydroxy-N-(1-(2-(2-hydroxyphenyl)-7-methylquinazolin-4-yl)piperidin-4-yl)-2-methylpropanamide] |
| > 10 | CCC(O)(CC)C(=O)NC1CCN(c2nc(-c3ccccc3O)nc3cc(C)ccc23)CC1 [Example 234, 2-Ethyl-2-hydroxy-N-(1-(2-(2-hydroxyphenyl)-7-methylquinazolin-4-yl)piperidin-4-yl)butanamide] |
| 2 to 10 | CC(C)(O)C(=O)NC1CCN(c2nc(-c3ccccc3O)nc3ccccc23)CC1 [Example 235, 2-Hydroxy-N-(1-(2-(2-hydroxyphenyl)quinazolin-4-yl)piperidin-4-yl)-2-methylpropanamide] |
| > 10 | CC[C@@H](O)C(=O)NC1CCN(c2nc(-c3ccccc3O)nc3ccccc23)CC1 [Example 236, (2R)-2-Hydroxy-N-(1-(2-(2-hydroxyphenyl)quinazolin-4-yl)piperidin-4-yl)butanamide] |
| > 10 | CC[C@H](O)C(=O)NC1CCN(c2nc(-c3ccccc3O)nc3ccccc23)CC1 [Example 237, (2S)-2-Hydroxy-N-(1-(2-(2-hydroxyphenyl)quinazolin-4-yl)piperidin-4-yl)butanamide] |
| > 10 | CCCCC(O)C(=O)NC1CCN(c2nc(-c3ccccc3O)nc3ccccc23)CC1 (stereo not shown) [Example 238, 2-Hydroxy-N-(1-(2-(2-hydroxyphenyl)quinazolin-4-yl)piperidin-4-yl)hexanamide] |
| > 10 | CC(O)(C(=O)NC1CCN(c2nc(-c3ccccc3O)nc3ccccc23)CC1)C(F)(F)F (stereo not shown) [Example 239, 2-(Trifluoromethyl)-2-hydroxy-N-(1-(2-(2-hydroxyphenyl)quinazolin-4-yl)piperidin-4-yl)propanamide] |
| > 10 | CCC(O)(CC)C(=O)NC1CCN(c2nc(-c3ccccc3O)nc3ccccc23)CC1 [Example 240, 2-Ethyl-2-hydroxy-N-(1-(2-(2-hydroxyphenyl)quinazolin-4-yl)piperidin-4-yl)butanamide] |
| > 10 | CCCC(O)C(=O)NC1CCN(c2nc(-c3ccccc3O)nc3ccccc23)CC1 (stereo not shown) [Example 241, 2-Hydroxy-N-(1-(2-(2-hydroxyphenyl)quinazolin-4-yl)piperidin-4-yl)pentanamide] |
| 2 to 10 | CCC(C)(O)C(=O)NC1CCN(c2nc(-c3ccccc3O)nc3ccccc23)CC1 (stereo not shown) [Example 242, 2-Hydroxy-N-(1-(2-(2-hydroxyphenyl)quinazolin-4-yl)piperidin-4-yl)-2-methylbutanamide] |
| > 10 | CC[C@@H](O)C(=O)NC1CCN(c2nc(-c3ccccc3O)nc3cc(C)ccc23)CC1 [Example 243, (2R)-2-Hydroxy-N-(1-(2-(2-hydroxyphenyl)-7-methylquinazolin-4-yl)piperidin-4-yl)butanamide] |
| > 10 | CC[C@H](O)C(=O)NC1CCN(c2nc(-c3ccccc3O)nc3cc(C)ccc23)CC1 [Example 244, (2S)-2-Hydroxy-N-(1-(2-(2-hydroxyphenyl)-7-methylquinazolin-4-yl)piperidin-4-yl)butanamide] |

| IC50 [µM] | Compound |
| --- | --- |
| > 10 | CCCCC(O)C(=O)NC1CCN(c2nc(-c3ccccc3O)nc3cc(C)ccc23)CC1 (stereo not shown) [Example 245, 2-Hydroxy-N-(1-(2-(2-hydroxyphenyl)-7-methylquinazolin-4-yl)piperidin-4-yl)hexanamide] |
| > 10 | Cc1ccc2c(N3CCC(NC(=O)C(C)(O)C(F)(F)F)CC3)nc(-c3ccccc3O)nc2c1 (stereo not shown) [Example 246, 2-(Trifluoromethyl)-2-hydroxy-N-(1-(2-(2-hydroxyphenyl)-7-methylquinazolin-4-yl)piperidin-4-yl)propanamide] |
| > 10 | CCCC(O)C(=O)NC1CCN(c2nc(-c3ccccc3O)nc3cc(C)ccc23)CC1 (stereo not shown) [Example 247, 2-Hydroxy-N-(1-(2-(2-hydroxyphenyl)-7-methylquinazolin-4-yl)piperidin-4-yl)pentanamide] |
| 2 to 10 | CCC(C)(O)C(=O)NC1CCN(c2nc(-c3ccccc3O)nc3cc(C)ccc23)CC1 (stereo not shown) [Example 248, 2-Hydroxy-N-(1-(2-(2-hydroxyphenyl)-7-methylquinazolin-4-yl)piperidin-4-yl)-2-methylbutanamide] |
| 2 to 10 | Cc1ccc2c(N3CCC(NC(=O)[C@H](O)CC(C)(C)C)CC3)nc(-c3c(O)cccc3F)nc2c1 [Example 249, (2R)—N-(1-(2-(2-Fluoro-6-hydroxyphenyl)-7-methylquinazolin-4-yl)piperidin-4-yl)-2-hydroxy-4,4-dimethylpentanamide] |
| < 2 | Cc1ccc2c(N3CCCC(CNC(=O)OCC(C)C)C3)nc(-c3ccccc3O)nc2c1 (stereo not shown) [Example 250, Isobutyl (1-(2-(2-hydroxyphenyl)-7-methylquinazolin-4-yl)piperidin-3-yl)methylcarbamate] |
| 2 to 10 | CCOC(=O)NCC1CCCN(c2nc(-c3ccccc3O)nc3cc(C)ccc23)C1 (stereo not shown) [Example 251, Ethyl (1-(2-(2-hydroxyphenyl)-7-methylquinazolin-4-yl)piperidin-3-yl)methylcarbamate] |
| > 10 | Cc1ccc2c(N3CCC[C@@H](CNC(=O)OCC(C)C)C3)nc(-c3ccccc3O)nc2c1 [Example 252, Isobutyl ((S)-1-(2-(2-hydroxyphenyl)-7-methylquinazolin-4-yl)piperidin-3-yl)methylcarbamate] |
| > 10 | Cc1ccc2c(N3CCC[C@H](CNC(=O)OCC(C)C)C3)nc(-c3ccccc3O)nc2c1 [Example 253, Isobutyl ((R)-1-(2-(2-hydroxyphenyl)-7-methylquinazolin-4-yl)piperidin-3-yl)methylcarbamate] |
| 2 to 10 | CCOC(=O)NC[C@@H]1CCCN(c2nc(-c3ccccc3O)nc3cc(C)ccc23)C1 [Example 254, Ethyl((S)-1-(2-(2-hydroxyphenyl)-7-methylquinazolin-4-yl)piperidin-3-yl)methylcarbamate] |
| > 10 | Cc1ccc2c(N3CCC[C@@H](CNC(=O)OC(C)C)C3)nc(-c3ccccc3O)nc2c1 [Example 255, Isopropyl ((S)-1-(2-(2-hydroxyphenyl)-7-methylquinazolin-4-yl)piperidin-3-yl)methylcarbamate] |
| 2 to 10 | CCCOC(=O)NC[C@@H]1CCCN(c2nc(-c3ccccc3O)nc3cc(C)ccc23)C1 [Example 256, Propyl ((S)-1-(2-(2-hydroxyphenyl)-7-methylquinazolin-4-yl)piperidin-3-yl)methylcarbamate] |
| 2 to 10 | COCCOC(=O)NC[C@@H]1CCCN(c2nc(-c3ccccc3O)nc3cc(C)ccc23)C1 [Example 257, 2-Methoxyethyl ((S)-1-(2-(2-hydroxyphenyl)-7-methylquinazolin-4-yl)piperidin-3-yl)methylcarbamate] |
| < 2 | COCCOC(=O)NC1CCN(c2nc(-c3ccccc3O)nc3ccc(F)cc23)CC1 [Example 258, 2-Methoxyethyl 1-(6-fluoro-2-(2-hydroxyphenyl)quinazolin-4-yl)piperidin-4-ylcarbamate] |
| < 2 | Cc1ccc2c(N3CCC(NC(=O)OC(C)(C)C)CC3)nc(-c3ccccc3O)nc2c1 [Example 259, {1-[2-(2-Hydroxy-phenyl)-7-methyl-quinazolin-4-yl]-piperidin-4-yl}-carbamic acid tert-butyl ester] |
| < 2 | Cc1ccc2c(N3CCC[C@@H](CNC(=O)OCC(C)C)C3)nc(-c3c(O)cccc3F)nc2c1 [Example 260, Isobutyl ((S)-1-(2-(2-fluoro-6-hydroxyphenyl)-7-methylquinazolin-4-yl)piperidin-3-yl)methylcarbamate] |
| 2 to 10 | COCCOC(=O)NC[C@@H]1CCCN(c2nc(-c3c(O)cccc3F)nc3cc(C)ccc23)C1 [Example 261, 2-Methoxyethyl ((S)-1-(2-(2-fluoro-6-hydroxyphenyl)-7-methylquinazolin-4-yl)piperidin-3-yl)methylcarbamate] |
| 2 to 10 | CCOC(=O)NC[C@@H]1CCCN(c2nc(-c3c(O)cccc3F)nc3cc(C)ccc23)C1 [Example 262, Ethyl ((S)-1-(2-(2-fluoro-6-hydroxyphenyl)-7-methylquinazolin-4-yl)piperidin-3-yl)methylcarbamate] |
